Results published in paper PMC4322365, “A Ligand-observed Mass Spectrometry Approach Integrated into the Fragment Based Lead Discovery Pipeline” (Scientific Reports, 2015).
Where “and” joins values, the source holds several entries; their conditions need not be identical. Equal values may be shown once.

Columns and labels:
NS5B = biological target: T1, NS5B (Hepatitis C virus genotype 1b, UniProt P26663); assay: SPR analysis (Biacore T200, immobilized NS5B); format: binding; settings: for SPR Corr. response (RU): corrected response above 5 RU indicates positive binding; for SPR binding: threshold 5 RU
T1 construct: NS5B with a C-terminal 10-His tag was expressed in E. coli; 10-His (C); made in house; host or cells: E. coli
T1 sequence (P26663 2420-3010): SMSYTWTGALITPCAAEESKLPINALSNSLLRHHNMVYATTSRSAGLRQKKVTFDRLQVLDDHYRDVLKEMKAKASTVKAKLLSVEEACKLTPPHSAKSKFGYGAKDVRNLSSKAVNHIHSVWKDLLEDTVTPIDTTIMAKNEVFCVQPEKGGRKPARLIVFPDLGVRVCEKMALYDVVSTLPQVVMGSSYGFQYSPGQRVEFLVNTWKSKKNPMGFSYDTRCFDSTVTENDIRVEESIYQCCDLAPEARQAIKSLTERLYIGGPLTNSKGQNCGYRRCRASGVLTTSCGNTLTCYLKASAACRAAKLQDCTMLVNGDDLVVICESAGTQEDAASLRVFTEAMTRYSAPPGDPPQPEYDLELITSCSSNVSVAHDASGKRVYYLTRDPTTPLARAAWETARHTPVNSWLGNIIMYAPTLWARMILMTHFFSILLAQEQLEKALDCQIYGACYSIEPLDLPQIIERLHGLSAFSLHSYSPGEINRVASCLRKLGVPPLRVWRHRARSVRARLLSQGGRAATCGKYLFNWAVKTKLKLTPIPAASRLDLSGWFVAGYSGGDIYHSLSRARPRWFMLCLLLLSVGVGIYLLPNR
Protocol: In order to determine the dissociation constant of each fragment ligand, we prepared calibration curves for the MS responses of ten fragments in a mixture (Figure S1) and measured the recovery rate of each fragment (Table S3), which were used to derive the actual concentrations of fragments bound to the target. Kd values were then calculated based on the measured concentrations of fragment ligands dissociated from the target (Table S3). […] Ligand efficiency (LE) values were then derived from Kd's as a measure to justify which fragments to further optimize and elaborate in the FBLD pipeline[46][47] (Figure 2A). To examine the accuracy of Kd measurement using this new approach, we first attempted to utilize ITC for binding affinity assessment. […] SPR was then implemented for Kd determination for these fragment hits. […] However, using the single point measurement method, we were still able to estimate Kd's for these fragment-target interactions to be all within the millimolar range and rank the order of their binding affinity according to corrected responses (Figure 2B). […] The overall consistency of affinity ranking and estimation between the two independent assays implied our new approach enabled reliable assessment of binding affinity, especially valuable for characterizing low-affinity fragments not amenable to conventional biophysical approaches.
The SPR experiment was performed on a Biacore T200 optical biosensor (Biacore Life Sciences, GE Healthcare). Series S sensor chips CM5, NHS, EDC, ethanolamine HCl as well as sampling vials and caps were all obtained from Biacore. A solution of 1 × PBS with 5% DMSO was used as running buffer. NS5B protein at 50 μg/ml prepared in buffer of 10 mM sodium acetate (pH 5.5) was injected for immobilization which reached a level of 8000 RU. During each binding cycle, the fragment solution was injected for 1 min at a flow rate of 30 μL/min and dissociation was monitored for 300 s. Data were collected with the biosensor instrument thermo stated to 25°C. Raw data collected on an SPR biosensor were further processed to remove systematic artifacts stemming from nonspecific binding, signal drift, and bulk refractive index changes. Solvent correction and molecular weight adjustment were also applied in this study. All data processing and analysis was performed using the Biacore T200 Evaluation Software.

HCV RNA polymerase NS5B = biological target: T2, HCV RNA polymerase NS5B (Hepatitis C virus genotype 1b, UniProt P26663); assay: Ligand-observed MS primary screen of the 384-fragment mixture (ultrafiltration LC/MS); format: binding; settings: for S/N in the 1st screen: 384 fragments each 25 μM, NS5B 50 μM, two experimental replicates separated by a slash, S/N > 10 indicates positive hit
T2 construct: NS5B with a C-terminal 10-His tag was expressed in E. coli; 10-His (C); made in house; host or cells: E. coli
T2 sequence (P26663 2420-3010): as above
Protocol: A two-stage fragment screening strategy based on the ligand-observed MS analysis was devised that involved a primary screen of 384 fragment as a whole followed by a secondary independent screen of fragment cocktails of less complexity. In the primary screen, a mixture of all 384 fragments was incubated with NS5B protein before the fragment-bound complexes were separated from excessive free fragments using ultrafiltration. […] Fragments dissociated from the target using 90% methanol in deionized water were subjected to LC-MS analysis and those showing MS intensity substantially higher than the negative control (protein-free incubation) were considered positive hits (Figure 1A). Although in our previous assay development we justified an S/N ratio of 2 to be the threshold for positive binding, here we raised the S/N threshold to 10 so as to retain the upmost strong binders given that low-affinity fragments are more inclined to nonspecific adsorption. Impressively, the high selectivity of high-resolution MS (HRMS) analysis enabled rapid screening of the 384-fragment mixture within 20-min analytical time, generating 20 preliminary hits with S/N above 10 (Figure 1B, full data sets in Table S1). It is noted that 20 compounds (5%) in this library are not amenable to our analysis, probably due to the limited sensitivity of the mass spectrometer used in this study or the intrinsically low ionization efficiency of these compounds. Nevertheless, these undetectable fragments were still included in the screening cocktail to maximize the complexity of multiple ligand interactions during incubation. To the best of our knowledge, such a high capacity in mixture screening has never been shown before for fragment libraries, and we anticipate the throughput can be easily boosted to screening >1000 fragments within half an hour using a state-of-the-art mass spectrometer.
In the primary screening, a mixture of 384 fragments (each at a final concentration of 25 μM) and NS5B at 50 μM was prepared in the binding buffer of 20 mM MES (pH 6.5), 300 mM NaCl and 10% glycerol, and incubated for 40 min at 25°C. All fragments of the library were either purchased from Sigma or synthesized in our laboratory, and their structural diversity was summarized in Figure S4. The mixture was then filtered through an ultrafiltration membrane (50 KD MW cut-off) by centrifugation at 13000 g for 10 min at […]. The protein complexes bound with different fragments were washed twice with 10 mM ammonium acetate (pH 6.5) followed by centrifugation to remove the unbound fragments. The resulting solution of the complexes was transferred to a new centrifugal tube, and the ligands were dissociated from NS5B with 90% methanol in deionized water. The released ligands were then separated from the denatured protein by centrifugation at 13000 g for 10 min at 20°C. The supernatant containing the ligands was evaporated by a speed vacuum, reconstituted in 80% methanol, and analyzed by LC/MS. The protein-free control was prepared by using the binding buffer substitute for NS5B during incubation and it underwent the same process as the NS5B incubated sample. In the secondary screen, 384 fragments were divided into 7 cocktails, each consisting of 50 fragments except for the seventh cocktail of 84 fragments. Each cocktail was then incubated with NS5B in the binding buffer at the same final concentration as in the primary screen. […] Ultrafiltration and complex dissociation were performed as described earlier to obtain fragment ligands. Samples were all prepared in duplicate and analyzed separately.
Aliquots of reconstituted ultrafiltrates were analyzed on a Waters Synapt G1 high-dfinition mass spectrometer (Milford, MA) equipped with a Waters Acquity UPLC system. UPLC separation was carried out on a Waters Acquity BEH C18 column (2.1 mm × 50 mm, 1.7 μm) at a flow rate of 200 μL/min, with the mobile phases of water/0.1% formic acid (A) and acetonitrile/0.1% formic acid (B). […]

Compound | SPR Corr. response (RU) (NS5B) | S/N in the 1st screen (HCV RNA polymerase NS5B) | Binding (HCV RNA polymerase NS5B; Figure 1A workflow example) | S/N (HCV RNA polymerase NS5B; Figure 1A workflow example) | SPR binding (NS5B)
Oc1ccc(F)c(Cl)c1 [Fragment 85] | 30.9 RU | 27.9 and 29.7 | – | – | –
N#CCc1ccc(O)cc1 [Fragment 114] | 55.6 RU | 17.9 and 20.9 | – | – | –
Cc1ccc2oc(=O)ccc2c1 [Fragment 117] | 24.6 RU | 55.6 and 46.8 | – | – | –
Cn1c(=O)cc(O)c2ccccc21 [Fragment 130] | 18.4 RU | 93.1 and 102.3 | + (Positive fragment binding is indicated by its S/N ratio > 10) | 93 | –
Cc1cc(N)n(-c2ccccc2)n1 [Fragment 131] | 14.7 RU | 45.7 and 39.3 | – | – | –
Nc1ccc(C(F)(F)F)cn1 [Fragment 162] | 7.6 RU | 2714 and 3280 | + (Positive fragment binding is indicated by its S/N ratio > 10) | – | –
O=C(O)c1ccc(C(F)(F)F)cc1 [Fragment 204] | < 5 RU and 3.2 RU | 13.4 and 11.6 | – | – | no binding
Oc1ccc(SC(F)(F)F)cc1 [Fragment 237] | 10.0 RU | 1027 and 1179 | – | – | –
N#CC(c1ccccc1)N1CCOCC1 (stereo not drawn) [Fragment 328] | – | 124.6 and 138.4 | – | – | no binding
Cc1nc2ccccc2nc1C [Fragment 339] | 12.2 RU | 241.4 and 259.8 | – | – | –
